Assay results as given in ChEMBL document CHEMBL5523764, “Discovery of NO Donor-Aurovertin Hybrids as Dual Ferroptosis and Apoptosis Inducers for Treating Triple Negative Breast Cancer” (J Med Chem, 2024).

Columns and labels:
[1] = Toxicity in ip dosed mouse assessed as body weight loss; format: organism-based; conditions: in vivo
[2] = Cytotoxicity against human MCF-10A cells assessed as reduction in cell viability incubated for 72 hrs by MTT assay; format: toxicity, cell-based
[3] = Toxicity in ip dosed mouse assessed as appearance of messy furs; format: organism-based; conditions: in vivo
4T1 = assay: Antiproliferative activity against mouse 4T1 cells assessed as reduction in cell viability incubated for 72 hrs by MTT assay; format: functional, cell-based; conditions: 4T1, 72 h
[4] = Selectivity index, ratio of IC50 for cytotoxicity against human MCF-10A cells to IC50 for antiproliferative activity against human MDA-MB-231 cells; format: toxicity, cell-based; conditions: MCF-10A cells versus MDA-MB-231 cells, read-out: Ratio IC50
[5] = Toxicity in mouse assessed as animal death at >6 mg/kg, ip; format: organism-based; conditions: in vivo
[6] = Toxicity in ip dosed mouse assessed as appearance of loose gray stool; format: organism-based; conditions: in vivo
[7] = Toxicity in ip dosed mouse assessed as lethal dose; format: organism-based; conditions: in vivo
MDA-MB-231 = assay: Antiproliferative activity against human MDA-MB-231 cells assessed as reduction in cell viability incubated for 72 hrs by MTT assay; format: functional, cell-based; conditions: MDA-MB-231, 72 h

Question: With `CC[C@H]1O[C@@]2(C)[C@H](OC(C)=O)[C@@]1(C)O[C@@H](/C=C/C=C/C=C/c1oc(=O)cc(OC)c1C)[C@@H]2O` as the molecule, how does the Activity [1] read?
Answer: Toxic

Question: And the IC50 at 72 h [2]?
Answer: > 50 µM

Question: What about the Activity [3] of the same molecule?
Answer: Toxic

Question: What about the IC50 (4T1) of the same molecule?
Answer: 3.34 µM

Question: And the selectivity ratio [4]?
Answer: > 23

Question: What about the Activity [5] of the same molecule?
Answer: Toxic

Question: What about the Activity [6] of the same molecule?
Answer: Toxic

Question: What about the LD50 [7] of the same molecule?
Answer: 12 mg/kg

Question: What about the IC50 (MDA-MB-231) of the same molecule?
Answer: 2.17 µM
